Experimental findings from patent US12162858B2, “Quinoline derivatives as inhibitors of AXL/MER RTK and CSF1R” (QURIENT CO., LTD., priority 2018, dated 2024) are described below.

Each structure is given as a SMILES string. pKd: −log10 of the molar value.

The pKd is the Kd on a negative log10 scale, so that one unit is a factor of ten.

The first assay deals with T1, Mer (Homo sapiens, UniProt Q12866).
T1 construct: purchased Life Technologies
T1 sequence (Q12866 21-999): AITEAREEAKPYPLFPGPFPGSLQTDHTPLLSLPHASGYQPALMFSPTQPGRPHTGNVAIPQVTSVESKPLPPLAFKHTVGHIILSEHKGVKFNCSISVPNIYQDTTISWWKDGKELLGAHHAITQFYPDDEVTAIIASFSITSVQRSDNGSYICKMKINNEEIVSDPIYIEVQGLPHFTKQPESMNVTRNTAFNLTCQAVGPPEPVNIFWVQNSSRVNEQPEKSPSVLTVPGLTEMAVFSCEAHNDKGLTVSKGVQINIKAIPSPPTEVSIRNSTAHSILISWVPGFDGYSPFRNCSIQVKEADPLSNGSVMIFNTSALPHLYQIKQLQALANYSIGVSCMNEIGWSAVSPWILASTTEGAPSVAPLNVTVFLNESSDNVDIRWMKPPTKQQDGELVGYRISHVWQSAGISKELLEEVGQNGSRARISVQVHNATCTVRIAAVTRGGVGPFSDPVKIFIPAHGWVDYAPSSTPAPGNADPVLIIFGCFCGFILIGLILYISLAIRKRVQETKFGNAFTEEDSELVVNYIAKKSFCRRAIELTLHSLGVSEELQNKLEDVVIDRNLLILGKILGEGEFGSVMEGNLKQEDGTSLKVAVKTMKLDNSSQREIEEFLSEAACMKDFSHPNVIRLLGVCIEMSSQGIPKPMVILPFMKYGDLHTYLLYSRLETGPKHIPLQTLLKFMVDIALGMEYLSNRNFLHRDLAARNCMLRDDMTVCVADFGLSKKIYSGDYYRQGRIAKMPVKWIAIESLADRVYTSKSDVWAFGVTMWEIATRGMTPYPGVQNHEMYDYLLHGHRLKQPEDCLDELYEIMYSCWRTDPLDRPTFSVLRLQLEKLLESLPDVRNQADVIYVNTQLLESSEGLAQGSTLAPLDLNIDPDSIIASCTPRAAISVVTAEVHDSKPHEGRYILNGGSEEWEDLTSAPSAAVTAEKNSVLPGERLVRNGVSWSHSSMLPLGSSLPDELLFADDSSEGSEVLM
The assay can be described thus: LanthaScreen Eu kinase binding assay for Mer. As to conditions: comparison of compounds of present invention (**) vs compounds of WO2016/166250 (*); read-out: Binding activity Mer (Kd). The method, then:
LanthaScreen® Eu Kinase Binding assays were conducted at Life Technologies using the manufacturer's specifications for each kinase indicated.
Briefly, the principle behind this assay is based upon the binding and displacement of an Alexa Fluor 647-labeled tracer to the kinase of interest. Binding of the tracer to the kinase is detected using an EU-labeled anti-tag antibody. Simultaneous binding of both the tracer and antibody to the kinase gives rise to a FRET-signal. Binding of an inhibitor to the kinase competes for binding with the tracer, resulting in a loss of FRET-signal.
A given compound was diluted in DMSO to make a stock compound solution. The stock compound solution was serially diluted over eight steps in DMSO. Each diluted compound solution in DMSO was diluted in kinase buffer. Afterwards four kinds of working solution were prepared. First, Tracer-Working solution consists of Tracer 236 and Kinase Buffer. Second, Axl, Mer, Tyro3 or Met/anti-GST-AB-Working solution contained one of the kinases Axl, and Mer or anti-GST-AB (=anti glutathione-S-transferase antibody) in Kinase Buffer. Third, anti-GST-AB-Working solution was made with anti-GST-AB and Kinase Buffer. Last, in the DMSO-Working solution DMSO was added to Kinase Buffer to a final concentration to 3%. Each of the four kinds of working solutions were separately added to the assay plate and then incubated for 1 h at room temperature. After incubation, the assay plate was measured with respect to the FRET-Signal with the EnVision (Perkin Elmer) using the program LanthaHTRF-Assay. Data evaluation was done in the Quattro Workflow software. Kd (the equilibrium dissociation constant) values were calculated relative to vehicle (DMSO) control wells.
In general terms: Time-resolved FRET reads energy transfer from a long-lived donor to a nearby acceptor.
Regarding `CCn1cc(OCC(F)(F)F)c(C(=O)Nc2ccc(Oc3ccnc4cc(OC)c(OC)cc34)cn2)n1` [Compound 4], the pKd is 8.80.

Take `COc1cc2nccc(Oc3ccc(NC(=O)c4nn(CC5COC5)cc4OCC(F)(F)F)nc3)c2cc1OC` [Compound 92]: the negative logarithm of the Kd (pKd) was 8.89.

Still in this assay, the particulars now being: read-out: Mer kinase binding activity (Kd).
On to `COc1cc2nccc(Oc3ccc(NC(=O)c4nn(C5CC5)cc4OCCF)nc3)c2cc1OC` [Compound 110], for which the pKd is above 7.00.

In the case of `COc1cc2nccc(Oc3ccc(NC(=O)c4nn(C5CC5)cc4OC(C)C)nn3)c2cc1OC` [Compound 147], the pKd is above 7.00.

Take `CNCCn1cc(OCC(F)(F)F)c(C(=O)Nc2ccc(Oc3ccnc4cc(OC)c(OC)cc34)c(C)c2)n1` [Compound 156]: the pKd is 6.30 to 7.00.

For `CCCn1cc(OCC2COC2)c(C(=O)Nc2ccc(Oc3ccnc4cc(OC)c(OC)cc34)cn2)n1` [Compound 106], the negative logarithm of the Kd (pKd) was above 7.00.

On to `CCCn1cc(OCC2CCOCC2)c(C(=O)Nc2ccc(Oc3ccnc4cc(OC)c(OC)cc34)cn2)n1` [Compound 164], for which the pKd was above 7.00.

As to `CNCCn1cc(OCC(F)(F)F)c(C(=O)Nc2ccc(Oc3ccnc4cc(OC)c(OC)cc34)cc2F)n1` [Compound 154], the pKd was above 7.00.

Regarding `COc1cc2nccc(Oc3ccc(NC(=O)c4nn(C5CC5)cc4NCCC(F)(F)F)nc3)c2cc1OC` [Compound 142], the negative logarithm of the Kd (pKd) was above 7.00.

Regarding `COc1cc2nccc(Oc3ccc(NC(=O)c4nn(CCOC5CC5)cc4OCC(F)(F)F)cc3)c2cc1OC` [Compound 118], the pKd is above 7.00.

In the case of `COc1cc2nccc(Oc3ccc(NC(=O)c4nn(CCOC5CC5)cc4OCC(F)(F)F)c(F)c3)c2cc1OC` [Compound 115], the pKd was above 7.00.

On to `COc1cc2nccc(Oc3ccc(NC(=O)c4nn(CCOC5CC5)cc4OCC(F)(F)F)cc3F)c2cc1OC` [Compound 116], for which the pKd was above 7.00.

Take `CCn1cc(OCC(F)(F)F)c(C(=O)Nc2ccc(Oc3ccnc4cc(OC)c(OC)cc34)cn2)n1` [Compound 4]: the pKd was above 7.00.

`COc1cc2nccc(Oc3ccc(NC(=O)c4nn(C5CCN(C)C5)cc4OCC(F)(F)F)cc3C)c2cc1OC` (stereo not drawn) [Compound 98]: the pKd was above 7.00.

As for `COc1cc2nccc(Oc3ccc(NC(=O)c4nn(C5CCCC5)cc4OCC(F)(F)F)nn3)c2cc1OC` [Compound 121], the pKd was above 7.00.

On to `COc1cc2nccc(Oc3ccc(NC(=O)c4nn(C5CC5)cc4NCC(F)(F)F)nc3)c2cc1OC` [Compound 145], for which the negative-log Kd (pKd) is above 7.00.

With `CCCn1cc(OCC(F)(F)F)c(C(=O)Nc2ccc(Oc3ccnc4cc(OC)c(OC)cc34)c(C(F)(F)F)c2)n1` [Compound 114], the negative-log Kd (pKd) was above 7.00.

Turning to `COc1cc2nccc(Oc3ccc(NC(=O)c4nn(CC(C)C)cc4OCC(F)(F)F)cn3)c2cc1OC` [Compound 103], the pKd is above 7.00.

With `COc1cc2nccc(Oc3ccc(NC(=O)c4nn(CCN)cc4OCC(F)(F)F)cn3)c2cc1OC` [Compound 135], the pKd is at most 6.30.

Consider `COc1cc2nccc(Oc3ccc(NC(=O)c4nn(CC5COC5)cc4OCC(F)(F)F)cc3F)c2cc1OC` [Compound 97], for which the pKd was above 7.00.

In the case of `COc1cc2nccc(Oc3ccc(NC(=O)c4nn(CC(C)O)cc4OCCF)nc3)c2cc1OC` (stereo not drawn) [Compound 152], the pKd is above 7.00.

As to `COc1cc2nccc(Oc3ccc(NC(=O)c4nn(C5CCOC5)cc4OCC(F)(F)F)nn3)c2cc1OC` (stereo not drawn) [Compound 128], the pKd is above 7.00.

Regarding `COc1cc2nccc(Oc3ccc(NC(=O)c4nn(C5CC5)cc4OCC(F)F)nn3)c2cc1OC` [Compound 162], the negative-log Kd (pKd) is above 7.00.

`COc1cc2nccc(Oc3ccc(NC(=O)c4nn(C5CCN(C)C5)cc4OCC(F)(F)F)cn3)c2cc1OC` (stereo not drawn) [Compound 133]: the negative logarithm of the Kd (pKd) was 6.30 to 7.00.

Take `CNCCn1cc(OCC(F)(F)F)c(C(=O)Nc2ccc(Oc3ccnc4cc(OC)c(OC)cc34)c(F)c2)n1` [Compound 155]: the pKd was 6.30 to 7.00.

As to `COc1cc2nccc(Oc3ccc(NC(=O)c4nn(C5CCNC5)cc4OCC(F)(F)F)cn3)c2cc1OC` (stereo not drawn) [Compound 132], the pKd is at most 6.30.

For `COc1cc2nccc(Oc3ccc(NC(=O)c4nn(C5CC5)cc4OCC4CNC4)nc3)c2cc1OC` [Compound 144], the negative-log Kd (pKd) was 6.30 to 7.00.

As for `COc1cc2nccc(Oc3ccc(NC(=O)c4nn(C5CC5)cc4OCC4CCC4)nn3)c2cc1OC` [Compound 149], the pKd is above 7.00.

Turning to `COc1cc2nccc(Oc3ccc(NC(=O)c4nn(C5CCN(C)C5)cc4OCC(F)(F)F)cc3F)c2cc1OC` (stereo not drawn) [Compound 96], the pKd was above 7.00.

On to `COCCOc1cn(CC(C)O)nc1C(=O)Nc1ccc(Oc2ccnc3cc(OC)c(OC)cc23)cn1` (stereo not drawn) [Compound 150], for which the pKd is above 7.00.

On to `COc1cc2nccc(Oc3ccc(NC(=O)c4nn(CC(C)O)cc4OCC4CCC4)nc3)c2cc1OC` (stereo not drawn) [Compound 163], for which the negative logarithm of the Kd (pKd) was above 7.00.

Regarding `CNCCn1cc(OCC(F)(F)F)c(C(=O)Nc2ccc(Oc3ccnc4cc(OC)c(OC)cc34)cc2)n1` [Compound 119], the pKd was 6.30 to 7.00.

Turning to `CCCn1cc(OCCNC)c(C(=O)Nc2ccc(Oc3ccnc4cc(OC)c(OC)cc34)cn2)n1` [Compound 140], the pKd is 6.30 to 7.00.

With `COCCOc1cn(C2CC2)nc1C(=O)Nc1ccc(Oc2ccnc3cc(OC)c(OC)cc23)cn1` [Compound 107], the negative-log Kd (pKd) is above 7.00.

Take `CNCCOc1cn(C2CC2)nc1C(=O)Nc1ccc(Oc2ccnc3cc(OC)c(OC)cc23)cn1` [Compound 141]: the pKd was at most 6.30.

Turning to `CCCn1cc(OCC(F)(F)F)c(C(=O)Nc2ccc(Oc3ccnc4cc(OC)c(OC)cc34)cn2)n1` [Compound 7], the pKd was above 7.00.

Consider `COc1cc2nccc(Oc3ccc(NC(=O)c4nn(CC5COC5)cc4OCC(F)(F)F)nc3)c2cc1OC` [Compound 92], for which the pKd is above 7.00.

For the molecule `COc1cc2nccc(Oc3ccc(NC(=O)c4nn(C5CC5)cc4OCC4COC4)nc3)c2cc1OC` [Compound 143], the negative logarithm of the Kd (pKd) was above 7.00.

Regarding `COc1cc2nccc(Oc3ccc(NC(=O)c4nn(CC5COC5)cc4OCC(F)(F)F)cc3C)c2cc1OC` [Compound 99], the negative-log Kd (pKd) is above 7.00.

Regarding `COc1cc2nccc(Oc3ccc(NC(=O)c4nn(C5CCOC5)cc4OCC(F)(F)F)cn3)c2cc1OC` (stereo not drawn) [Compound 138], the pKd was above 7.00.

For `CCn1cc(OC(C)C)c(C(=O)Nc2ccc(Oc3ccnc4cc(OC)c(OC)cc34)cn2)n1` [Compound 6], the pKd was above 7.00.

Take `COc1cc2nccc(Oc3ccc(NC(=O)c4nn(C5CC5)cc4NCC(F)(F)F)nn3)c2cc1OC` [Compound 148]: the pKd is above 7.00.

For the molecule `COc1cc2nccc(Oc3ccc(NC(=O)c4nn(CCN)cc4OCC(F)(F)F)nn3)c2cc1OC` [Compound 125], the pKd is at most 6.30.

`CCCn1cc(OCC2CNC2)c(C(=O)Nc2ccc(Oc3ccnc4cc(OC)c(OC)cc34)cn2)n1` [Compound 159]: the negative-log Kd (pKd) is at most 6.30.

`COc1cc2nccc(Oc3ccc(NC(=O)c4nn(CCO)cc4OCC(F)(F)F)cn3)c2cc1OC` [Compound 129]: the pKd is 6.30 to 7.00.

Turning to `COc1cc2nccc(Oc3ccc(NC(=O)c4nn(CC5COC5)cc4OCC(F)(F)F)nn3)c2cc1OC` [Compound 123], the pKd was above 7.00.

Consider `COc1cc2nccc(Oc3ccc(NC(=O)c4nn(C)cc4OCC(F)(F)F)nn3)c2cc1OC` [Compound 102], for which the pKd is above 7.00.

In the case of `COc1cc2nccc(Oc3ccc(NC(=O)c4nn(C5CCNC5)cc4OCC(F)(F)F)nn3)c2cc1OC` (stereo not drawn) [Compound 122], the pKd was 6.30 to 7.00.

In the case of `COc1cc2nccc(Oc3ccc(NC(=O)c4nn(CC(C)O)cc4OC(C)C)nc3)c2cc1OC` (stereo not drawn) [Compound 151], the negative logarithm of the Kd (pKd) is above 7.00.

`CCCn1cc(OCC(F)F)c(C(=O)Nc2ccc(Oc3ccnc4cc(OC)c(OC)cc34)cn2)n1` [Compound 12]: the pKd was above 7.00.

Turning to `CCCn1cc(OCC(F)(F)F)c(C(=O)Nc2ccc(Oc3ccnc4cc(OC)c(OC)cc34)nc2)n1` [Compound 139], the pKd was above 7.00.
